Experimental data taken from the supplement of paper PMC10307832.

Columns and labels:
Assay in all cases: relative viability (nuclei count vs DMSO), 5 days (fraction); higher = more cells survive
IMD-0354 + Dasatinib = compound: O=C(Nc1cc(C(F)(F)F)cc(C(F)(F)F)c1)c1cc(Cl)ccc1O [IMD-0354] + Cc1nc(Nc2ncc(C(=O)Nc3c(C)cccc3Cl)s2)cc(N2CCN(CCO)CC2)n1 [Dasatinib] (partner 0.075 µM)
Method in brief: (§1)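 Relative viability was taken as the ratio of nuclei in treated wells to nuclei in vehicle wells. Lung cancer cell lines in 1536-well plates received compounds by pin tool one day after seeding, either one drug alone or a fixed anchor-drug dose plus five library-drug doses (not always all listed) in √10 steps. Nuclei were counted on 4× images after 5 days of treatment, and values are medians of duplicate plates.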

IMD-0354 + Luminespib = compound: O=C(Nc1cc(C(F)(F)F)cc(C(F)(F)F)c1)c1cc(Cl)ccc1O [IMD-0354] + CCNC(=O)c1noc(-c2cc(C(C)C)c(O)cc2O)c1-c1ccc(CN2CCOCC2)cc1 [Luminespib] (partner 0.01 µM)
Method in brief: as §1

IMD-0354 + Navitoclax = compound: O=C(Nc1cc(C(F)(F)F)cc(C(F)(F)F)c1)c1cc(Cl)ccc1O [IMD-0354] + CC1(C)CCC(c2ccc(Cl)cc2)=C(CN2CCN(c3ccc(C(=O)NS(=O)(=O)c4ccc(N[C@H](CCN5CCOCC5)CSc5ccccc5)c(S(=O)(=O)C(F)(F)F)c4)cc3)CC2)C1 [Navitoclax] (partner 0.5 µM)
Method in brief: as §1

CX-5461 + Crizotinib = compound: Cc1cnc(CNC(=O)c2c(=O)c3ccc(N4CCCN(C)CC4)nc3n3c2sc2ccccc23)cn1 [CX-5461] + C[C@@H](Oc1cc(-c2cnn(C3CCNCC3)c2)cnc1N)c1c(Cl)ccc(F)c1Cl [Crizotinib] (partner 1 µM)
Method in brief: as §1

Cell Line	relative viability (IMD-0354 + Dasatinib; first compound 0.04 µM)	relative viability (IMD-0354 + Dasatinib; first compound 0.1265 µM)	relative viability (IMD-0354 + Dasatinib; first compound 0.4 µM)	relative viability (IMD-0354 + Dasatinib; first compound 1.265 µM)	relative viability (IMD-0354 + Dasatinib; first compound 4 µM)	relative viability (IMD-0354 + Luminespib; first compound 0.04 µM)	relative viability (IMD-0354 + Luminespib; first compound 0.1265 µM)	relative viability (IMD-0354 + Luminespib; first compound 0.4 µM)	relative viability (IMD-0354 + Luminespib; first compound 1.265 µM)	relative viability (IMD-0354 + Luminespib; first compound 4 µM)	relative viability (IMD-0354 + Navitoclax; first compound 0.04 µM)	relative viability (IMD-0354 + Navitoclax; first compound 0.1265 µM)	relative viability (IMD-0354 + Navitoclax; first compound 0.4 µM)	relative viability (IMD-0354 + Navitoclax; first compound 1.265 µM)	relative viability (IMD-0354 + Navitoclax; first compound 4 µM)	relative viability (CX-5461 + Crizotinib; first compound 0.01 µM)	relative viability (CX-5461 + Crizotinib; first compound 0.03162 µM)	relative viability (CX-5461 + Crizotinib; first compound 0.1 µM)	relative viability (CX-5461 + Crizotinib; first compound 0.3162 µM)	relative viability (CX-5461 + Crizotinib; first compound 1 µM)
LU99A	0.573	0.648	0.445	0.113	0.19	0.214	0.264	0.221	0.196	0.201	0.644	0.808	0.654	0.479	0.148	0.571	0.552	0.495	0.344	0.453
LXF-289	0.249	0.244	0.207	0.0737	0.068	0.796	0.66	0.564	0.508	0.192	0.927	0.88	0.789	0.666	0.0776	0.805	0.882	0.823	0.399	0.725
NCI-H23	0.836	0.82	0.384	0.275	0.227	0.299	0.212	0.247	0.178	0.145	0.893	0.814	0.54	0.394	0.207	0.609	0.584	0.55	0.437	0.48
NCI-H322M	0.25	0.277	0.248	0.222	0.274	0.94	0.895	0.618	0.317	0.355	1.27	1.23	1.12	1.5	0.267	0.924	1.06	0.79		0.877
NCI-H441	0.611	0.583	0.499	0.191	0.229	0.279	0.409	0.234	0.214	0.2		0.473	0.38	0.164	0.217	0.642	0.719	0.867	0.673	0.509
NCI-H460	0.518	0.529	0.253	0.0582	0.0193	0.0305	0.0328	0.0332	0.0223	0.0144	1.21	0.977	0.0491	0.0709	0.0241	1.03	1.06	0.077	0.567	0.0138
NCI-H520	0.21	0.185	0.186	0.132	0.163	0.199	0.21	0.198	0.243	0.225	1.25	0.928	0.473	0.159	0.254	0.736	0.925	0.777	0.336	0.531
NCI-H596	0.728	0.608	0.435	0.63	0.261	1.01	1	0.508	0.306	0.275	0.96	0.854	0.777	0.982	0.476	0.981	0.972	0.973	1.19	0.907
